One may read the inhibition as how much of the control response was suppressed. For orientation: pIC50 means the IC50 on a negative log10 scale, so that one unit is a factor of ten. The term pKi denotes the negative decadic logarithm of the Ki, by convention in mol/L.

The results in this text go back to ChEMBL document CHEMBL4334519, “Anti-inflammatory and α-Glucosidase Inhibitory Activities of Labdane and Norlabdane Diterpenoids from the Rhizomes of Amomum villosum” (J Nat Prod, 2019).

The test system of assay [1] is Saccharomyces cerevisiae. In words: Inhibition of yeast alpha-glucosidase at 50 uM using p-nitrophenyl-alpha-D-glucopyranoside as substrate preincubated for 30 mins followed by substrate addition and measured after 30 mins by microplate reader analysis.
The nature of assay [2]: Inhibition of yeast alpha-glucosidase using p-nitrophenyl-alpha-D-glucopyranoside as substrate preincubated for 30 mins followed by substrate addition and measured after 30 mins by microplate reader analysis. Set-up: species or system Saccharomyces cerevisiae.
The test system of assay [3] is RAW264.7. The assay is described as follows: Antiinflammatory activity against mouse RAW264.7 cells assessed as inhibition of LPS-induced nitric oxide production measured after 24 hrs. Conditions: RAW264.7, 24 h. It counts as functional, cell-based.
The test system of assay [4] is Saccharomyces cerevisiae. The assay is described as follows: Mixed-type inhibition of yeast alpha-glucosidase assessed as reduction in Vmax up to 20 uM using p-NPG as substrate measured up to 180 mins by Lineweaver-Burk plot analysis.
In assay [5] the test system is Saccharomyces cerevisiae. The assay is described as follows: Mixed-type inhibition of yeast alpha-glucosidase assessed as reduction in Km up to 20 uM using p-NPG as substrate measured up to 180 mins by Lineweaver-Burk plot analysis.
The nature of assay [6]: Mixed-type inhibition of yeast alpha-glucosidase assessed as inhibition constant using p-NPG as substrate measured up to 180 mins by Lineweaver-Burk plot analysis. More on the design: species or system Saccharomyces cerevisiae.

pIC50, pKi: −log10 of the molar value. The source made the active and inactive calls. No cut-off for these calls is given here.

In assay [1], `O=c1c(-c2ccc(O)cc2)coc2cc(O)cc(O)c12` [GENISTEIN] returned an inhibition of 70%. Also, in assay [2], the pIC50 was 4.75.

On to `C=C1CC[C@H]2C(C)(C)CCC[C@]2(C)[C@H]1/C=C/C1=CC(=O)O[C@H]1O`, for which the results for the pIC50 in assay [3] and in assay [2] were 5.62 and 5.00, respectively. In assay [1], this compound yielded an inhibition of 95.7%. The inhibition result in assay [4] and in assay [5] was “Active” throughout. Moreover, in assay [6], the pKi was 5.02.

As for `CC1(C)CCC[C@]2(C)CC3=C(C[C@@H]12)C(=O)CC3`, the values for the pIC50 in assay [3] and in assay [2] were 4.37 and less than 4.30, respectively. This compound also registered an inhibition in assay [1] of 12.4%.

For the compound `CNC(=N)NCCC[C@H](N)C(=O)O` [TILARGININE], the pIC50 in assay [3] is 4.57.

Take `C=C1CC[C@H]2C(C)(C)CCC[C@]2(C)[C@H]1/C=C/C(=O)O`: the pIC50 was 4.63 in assay [3] and less than 4.30 in assay [2]. For the same compound, the inhibition in assay [1] was found to be 33.2%.

`OC[C@H]1NC[C@H](O)[C@@H](O)[C@@H]1O` [DUVOGLUSTAT] yielded an inhibition in assay [1] of 36.8%. The same compound showed a pIC50 in assay [2] of 3.94.

Regarding `C=C1CC[C@H]2C(C)(C)CCC[C@]2(C)[C@H]1CCC1=CC(=O)OC1`, the pIC50 in assay [3] was 4.73; in assay [2], 4.83. Further, the inhibition in assay [1] was found to be 89%.

In the case of `C=C1CC[C@H]2C(C)(C)CCC[C@]2(C)[C@H]1C/C=C(/C=O)CO`, the pIC50 is 4.54 in assay [3] and less than 4.30 in assay [2]. The compound also displayed an inhibition in assay [1] of 27.1%.

As for `C=C1CC[C@H]2C(C)(C)CCC[C@]2(C)[C@H]1C/C=C(/C=O)CCO`, the pIC50 in assay [3] and in assay [2] was less than 4.30 each time. For the same compound, the inhibition in assay [1] amounted to 36.9%.

For the compound `C=C1CC[C@H]2C(C)(C)CCC[C@]2(C)[C@H]1C/C=C(\CC(=O)OCC)C(=O)O`, the pIC50 in assay [3] and in assay [2] was less than 4.30 throughout. Moreover, in assay [1], the inhibition was 38.7%.

Consider `C=C1CC[C@H]2C(C)(C)CCC[C@]2(C)[C@H]1C/C=C1\CCOC1=O`, for which the negative logarithm of the IC50 (pIC50) in assay [3] is 4.51; in assay [2] it was 4.77. The inhibition in assay [1] turned out to be 89.1%.

Consider `C=C1CC[C@H]2C(C)(C)CCC[C@]2(C)[C@H]1C/C=C1\CC(OC)OC1=O` (some centres undefined), for which the values for the pIC50 in assay [3] and in assay [2] were 4.61 and 4.80, respectively. The compound also registered an inhibition in assay [1] of 87.8%.

For the compound `C=C1CC[C@H]2C(C)(C)CCC[C@]2(C)[C@H]1C/C=C1\CC(=O)OC1=O`, the pIC50 is 4.96 in assay [3] and 4.68 in assay [2]. This compound also registered an inhibition in assay [1] of 90.3%.

Consider `C=C1CC[C@H]2C(C)(C)CCC[C@]2(C)[C@H]1C/C=C1\CC(OCC)OC1=O` (some centres undefined), for which the pIC50 is 4.51 in assay [3] and 4.86 in assay [2]. In assay [1], this compound returned an inhibition of 89.3%.

Turning to `C=C1CC[C@H]2C(C)(C)CCC[C@]2(C)[C@H]1CCC1=CC(O)OC1=O` (some centres undefined) [CORONARIN C], the figures for the pIC50 in assay [3] and in assay [2] were 4.59 and 4.76, respectively. Besides, the inhibition in assay [1] amounted to 87.4%.
